# Results as given in publication PMC5218480 (PLoS ONE, 2017).
# Test system: MV-4-11 cells
# Assay: Gene expression microarray analysis (Affymetrix PrimeView) and GSEA
# Format: cell-based, human
# Design: RFU PODN (11730768_x_at) / Fold change /veh PODN (11730768_x_at) / RFU LINC00158 (11744669_a_at) / Fold change /veh LINC00158 (11744669_a_at) / RFU DUSP10 (11751237_a_at) / Fold change /veh DUSP10 (11751237_a_at) / RFU ID3 (11757404_x_at) / Fold change /veh ID3 (11757404_x_at) / RFU PLEKHG5 (11737974_s_at) / Fold change /veh PLEKHG5 (11737974_s_at) / RFU LRRC4B (11730491_at) / Fold change /veh LRRC4B (11730491_at) / RFU GIMAP4 (11747438_a_at) / Fold change /veh GIMAP4 (11747438_a_at) / RFU KRT8 (11758183_x_at) / Fold change /veh KRT8 (11758183_x_at) / RFU CNN1 (11734310_a_at) / Fold change /veh CNN1 (11734310_a_at) / RFU VPS37D (11726825_at) / Fold change /veh VPS37D (11726825_at) / RFU C10orf10 (11716522_x_at) / Fold change /veh C10orf10 (11716522_x_at) / RFU KIR2DL2 /// KIR2DL4 /// KIR2DL5A /// KIR2DL5B /// KIR2DS1 /// KIR2DS2 /// KIR2DS3 /// KIR2DS4 /// KIR3DL3 /// KIR3DL3 /// KIR3DS1 (11738374_at) / Fold change /veh KIR2DL2 /// KIR2DL4 /// KIR2DL5A /// KIR2DL5B /// KIR2DS1 /// KIR2DS2 /// KIR2DS3 /// KIR2DS4 /// KIR3DL3 /// KIR3DL3 /// KIR3DS1 (11738374_at) / RFU C1QL1 (11718748_at) / Fold change /veh C1QL1 (11718748_at) / RFU TMPRSS4 (11747572_a_at) / Fold change /veh TMPRSS4 (11747572_a_at) / RFU HAMP (11756126_x_at) / Fold change /veh HAMP (11756126_x_at) / RFU RNFT2 (11725882_a_at) / Fold change /veh RNFT2 (11725882_a_at) / RFU NR4A2 (11747474_a_at) / Fold change /veh NR4A2 (11747474_a_at) / RFU ABCC12 (11746883_a_at) / Fold change /veh ABCC12 (11746883_a_at) / RFU TMEM136 (11760407_x_at) / Fold change /veh TMEM136 (11760407_x_at) / RFU CLDN22 /// WWC2 (11732394_at) / Fold change /veh CLDN22 /// WWC2 (11732394_at) / RFU HLA-DPB1 (11760878_x_at) / Fold change /veh HLA-DPB1 (11760878_x_at) / RFU SPINT1 (11716480_a_at) / Fold change /veh SPINT1 (11716480_a_at) / RFU GAP43 (11754022_s_at) / Fold change /veh GAP43 (11754022_s_at) / RFU A4GNT (11735810_at) / Fold change /veh A4GNT (11735810_at) / RFU PRB3 (11715151_x_at) / Fold change /veh PRB3 (11715151_x_at) / RFU TUBB4B (11761932_at) / Fold change /veh TUBB4B (11761932_at) / RFU CAPN14 (11732068_a_at) / Fold change /veh CAPN14 (11732068_a_at) / RFU TMCC2 (11721928_a_at) / Fold change /veh TMCC2 (11721928_a_at) / RFU IRGQ (11745062_a_at) / Fold change /veh IRGQ (11745062_a_at) / RFU FAM174B (11720279_a_at) / Fold change /veh FAM174B (11720279_a_at) / RFU TMPRSS4 (11748680_a_at) / Fold change /veh TMPRSS4 (11748680_a_at) / RFU FAM212B (11763350_a_at) / Fold change /veh FAM212B (11763350_a_at) / RFU PLEKHG5 (11743358_a_at) / Fold change /veh PLEKHG5 (11743358_a_at) / RFU ZSCAN30 (11745921_a_at) / Fold change /veh ZSCAN30 (11745921_a_at) / RFU CMKLR1 (11741424_a_at) / Fold change /veh CMKLR1 (11741424_a_at) / RFU LOC101060620 /// MAPK8IP1 (11723275_at) / Fold change /veh LOC101060620 /// MAPK8IP1 (11723275_at) / RFU SPTSSB (11747773_x_at) / Fold change /veh SPTSSB (11747773_x_at) / RFU PRSS12 (11739890_at) / Fold change /veh PRSS12 (11739890_at) / RFU BIN1 (11741810_x_at) / Fold change /veh BIN1 (11741810_x_at) / RFU WNT11 (11732464_a_at) / Fold change /veh WNT11 (11732464_a_at) / RFU C10orf10 (11716521_a_at) / Fold change /veh C10orf10 (11716521_a_at) / RFU C5orf56 (11738089_at) / Fold change /veh C5orf56 (11738089_at) / RFU CYB561 (11721691_x_at) / Fold change /veh CYB561 (11721691_x_at) / RFU ANKRD19P (11752326_a_at) / Fold change /veh ANKRD19P (11752326_a_at) / RFU OR2T12 /// OR2T33 /// OR2T8 (11738714_s_at) / Fold change /veh OR2T12 /// OR2T33 /// OR2T8 (11738714_s_at) / RFU VCAN (11748164_a_at) / Fold change /veh VCAN (11748164_a_at) / RFU JSRP1 (11732532_at) / Fold change /veh JSRP1 (11732532_at) / RFU KRTAP10-11 (11738290_x_at) / Fold change /veh KRTAP10-11 (11738290_x_at) / RFU MYO3A (11730013_a_at) / Fold change /veh MYO3A (11730013_a_at) / RFU EBF3 (11725865_a_at) / Fold change /veh EBF3 (11725865_a_at) / RFU CAMK2N1 (11719241_x_at) / Fold change /veh CAMK2N1 (11719241_x_at) / RFU C5orf56 (11738088_a_at) / Fold change /veh C5orf56 (11738088_a_at) / RFU OLFML3 (11715873_a_at) / Fold change /veh OLFML3 (11715873_a_at) / RFU LOC100653217 /// NTM (11731650_a_at) / Fold change /veh LOC100653217 /// NTM (11731650_a_at) / RFU MAPK11 (11762145_a_at) / Fold change /veh MAPK11 (11762145_a_at) / RFU FIZ1 (11724087_x_at) / Fold change /veh FIZ1 (11724087_x_at) / RFU OASL (11726364_x_at) / Fold change /veh OASL (11726364_x_at) / RFU SOX15 (11748057_x_at) / Fold change /veh SOX15 (11748057_x_at) / RFU CD79A (11719716_a_at) / Fold change /veh CD79A (11719716_a_at) / RFU HIST1H1D (11736915_at) / Fold change /veh HIST1H1D (11736915_at) / RFU CASKIN2 (11723855_a_at) / Fold change /veh CASKIN2 (11723855_a_at) / RFU LOC730098 (11760151_x_at) / Fold change /veh LOC730098 (11760151_x_at) / RFU OR4N2 (11742367_at) / Fold change /veh OR4N2 (11742367_at) / RFU PRRT2 (11749266_a_at) / Fold change /veh PRRT2 (11749266_a_at) / RFU SNX32 (11753110_a_at) / Fold change /veh SNX32 (11753110_a_at) / RFU CDHR5 (11726645_a_at) / Fold change /veh CDHR5 (11726645_a_at) / RFU RCAN1 (11760418_a_at) / Fold change /veh RCAN1 (11760418_a_at) / RFU FAM167A (11723789_a_at) / Fold change /veh FAM167A (11723789_a_at) / RFU FAM26E (11764081_at) / Fold change /veh FAM26E (11764081_at) / RFU ISYNA1 (11749810_s_at) / Fold change /veh ISYNA1 (11749810_s_at) / RFU ACY1 (11761880_at) / Fold change /veh ACY1 (11761880_at) / RFU 11764098_at / Fold change /veh 11764098_at / RFU SAMD14 (11745864_x_at) / Fold change /veh SAMD14 (11745864_x_at) / RFU NPB (11741838_a_at) / Fold change /veh NPB (11741838_a_at) / RFU TMPRSS6 (11731388_a_at) / Fold change /veh TMPRSS6 (11731388_a_at) / RFU KRTAP10-2 (11738614_at) / Fold change /veh KRTAP10-2 (11738614_at) / RFU ARHGAP8 /// PRR5-ARHGAP8 (11727945_x_at) / Fold change /veh ARHGAP8 /// PRR5-ARHGAP8 (11727945_x_at) / RFU KRTAP5-7 /// NADSYN1 (11734609_at) / Fold change /veh KRTAP5-7 /// NADSYN1 (11734609_at) / RFU RASL12 (11751679_a_at) / Fold change /veh RASL12 (11751679_a_at) / RFU CDKN2B (11736163_a_at) / Fold change /veh CDKN2B (11736163_a_at) / RFU PRF1 (11729649_at) / Fold change /veh PRF1 (11729649_at) / RFU, ZNF638 /// ZNF638-IT1 / Fold change vs veh, ZNF638 /// ZNF638-IT1 / RFU, PANK3 / Fold change vs veh, PANK3 / RFU, SH3YL1 / Fold change vs veh, SH3YL1 / RFU, ZEB2 / Fold change vs veh, ZEB2 / RFU, NRIP1 / Fold change vs veh, NRIP1 / RFU, PTTG1IP / Fold change vs veh, PTTG1IP / RFU, CAPN2 / Fold change vs veh, CAPN2 / RFU, MED14 / Fold change vs veh, MED14 / RFU, SNORA58 / Fold change vs veh, SNORA58 / RFU, C1orf63 / Fold change vs veh, C1orf63 / RFU, LRRFIP1 / Fold change vs veh, LRRFIP1 / RFU, NDUFAF7 / Fold change vs veh, NDUFAF7 / RFU, SLC12A2 / Fold change vs veh, SLC12A2 / RFU, IBTK / Fold change vs veh, IBTK / RFU, ESF1 / Fold change vs veh, ESF1 / Fold change vs veh, TMEM50B / RFU, TAOK1 / Fold change vs veh, TAOK1 / RFU, ACBD3 / Fold change vs veh, ACBD3 / RFU, TMA16 / Fold change vs veh, TMA16 / RFU, RWDD3 / Fold change vs veh, RWDD3 / RFU, BCAT1 / Fold change vs veh, BCAT1 / RFU, EDEM3 / Fold change vs veh, EDEM3 / RFU, TMEM33 / Fold change vs veh, TMEM33 / RFU, WDR75 / Fold change vs veh, WDR75 / RFU, AHCTF1 / Fold change vs veh, AHCTF1 / RFU, TFRC / Fold change vs veh, TFRC / RFU, ZDHHC17 / Fold change vs veh, ZDHHC17 / RFU, NOM1 / Fold change vs veh, NOM1 / RFU, ARL8B / Fold change vs veh, ARL8B / RFU, ZBTB11 / Fold change vs veh, ZBTB11 / RFU, TAMM41 / Fold change vs veh, TAMM41 / RFU, KIAA1704 /// LOC100996395 / Fold change vs veh, KIAA1704 /// LOC100996395 / RFU, ING1 / Fold change vs veh, ING1 / RFU, TRMT61B / Fold change vs veh, TRMT61B / RFU, FUBP3 / Fold change vs veh, FUBP3 / RFU, TP53 / Fold change vs veh, TP53 / RFU, TNKS2 / Fold change vs veh, TNKS2 / RFU, ZFP14 / Fold change vs veh, ZFP14 / RFU, ACTR2 / Fold change vs veh, ACTR2 / RFU, PPP3R1 / Fold change vs veh, PPP3R1 / RFU, PIK3R1 / Fold change vs veh, PIK3R1 / RFU, HNRNPA1 / Fold change vs veh, HNRNPA1 / RFU, RNF170 / Fold change vs veh, RNF170 / RFU, ZNF28 / Fold change vs veh, ZNF28 / RFU, RNGTT / Fold change vs veh, RNGTT / RFU, OGT / Fold change vs veh, OGT / RFU, BRD1 / Fold change vs veh, BRD1 / RFU, MARS / Fold change vs veh, MARS / RFU, ZNF655 / Fold change vs veh, ZNF655 / RFU, FAHD1 / Fold change vs veh, FAHD1 / RFU, BDP1 / Fold change vs veh, BDP1 / RFU, LRRCC1 / Fold change vs veh, LRRCC1 / RFU, ARID1A / Fold change vs veh, ARID1A / RFU, ZNF146 / Fold change vs veh, ZNF146 / RFU, ZNF330 / Fold change vs veh, ZNF330 / RFU, GPN3 / Fold change vs veh, GPN3 / RFU, C9orf123 / Fold change vs veh, C9orf123 / RFU, N4BP2L2 / Fold change vs veh, N4BP2L2 / RFU, ARFIP1 / Fold change vs veh, ARFIP1 / RFU, FAM179B / Fold change vs veh, FAM179B / RFU, BCL10 / Fold change vs veh, BCL10 / RFU, UHRF1BP1L / Fold change vs veh, UHRF1BP1L / RFU, BET1 / Fold change vs veh, BET1 / RFU, CNOT2 / Fold change vs veh, CNOT2 / RFU, ZNF268 / Fold change vs veh, ZNF268 / Fold change vs veh, ZNF507 / RFU, DGCR2 / Fold change vs veh, DGCR2 / RFU, WDSUB1 / Fold change vs veh, WDSUB1 / Fold change vs veh, HSP90B1 /// MIR3652 / RFU, ADSS / Fold change vs veh, ADSS / RFU, GK / Fold change vs veh, GK / RFU, ZNF148 / Fold change vs veh, ZNF148 / RFU, TAF9 / Fold change vs veh, TAF9 / RFU, SLC1A5 / Fold change vs veh, SLC1A5 / RFU, SLMO2 / Fold change vs veh, SLMO2 / RFU, ABCC4 / Fold change vs veh, ABCC4 / RFU, LOC101060439 /// RAP1B / Fold change vs veh, LOC101060439 /// RAP1B / RFU, RFX7 / Fold change vs veh, RFX7 / RFU, GTPBP10 / Fold change vs veh, GTPBP10 / RFU, CNEP1R1 / Fold change vs veh, CNEP1R1 / RFU, BIVM-ERCC5 /// ERCC5 / Fold change vs veh, BIVM-ERCC5 /// ERCC5 / RFU, ILF3 / Fold change vs veh, ILF3 / RFU 11762660_at / Fold change /veh 11762660_at / RFU VCAN (11757783_s_at) / Fold change /veh VCAN (11757783_s_at) / RFU DDX43 (11728927_at) / Fold change /veh DDX43 (11728927_at) / RFU KRT8 (11758188_x_at) / Fold change /veh KRT8 (11758188_x_at) / RFU NKD1 (11759106_at) / Fold change /veh NKD1 (11759106_at) / RFU SRD5A1 (11742802_a_at) / Fold change /veh SRD5A1 (11742802_a_at) / RFU TPSAB1 /// TPSB2 (11721975_s_at) / Fold change /veh TPSAB1 /// TPSB2 (11721975_s_at) / RFU GSTM3 (11746129_a_at) / Fold change /veh GSTM3 (11746129_a_at) / RFU IL23R (11737362_x_at) / Fold change /veh IL23R (11737362_x_at) / RFU TMEM51 (11727254_a_at) / Fold change /veh TMEM51 (11727254_a_at) / RFU PIWIL2 (11732686_x_at) / Fold change /veh PIWIL2 (11732686_x_at) / RFU ORM1 (11744905_x_at) / Fold change /veh ORM1 (11744905_x_at) / RFU CCDC152 (11743942_at) / Fold change /veh CCDC152 (11743942_at) / RFU ECM1 (11717891_a_at) / Fold change /veh ECM1 (11717891_a_at) / RFU IL23R (11748794_a_at) / Fold change /veh IL23R (11748794_a_at) / RFU TNFAIP8L3 (11732012_x_at) / Fold change /veh TNFAIP8L3 (11732012_x_at) / RFU MBOAT4 (11741988_at) / Fold change /veh MBOAT4 (11741988_at) / RFU 11764193_at / Fold change /veh 11764193_at / RFU TMEM53 (11763286_at) / Fold change /veh TMEM53 (11763286_at) / RFU MAGEB2 (11727129_at) / Fold change /veh MAGEB2 (11727129_at) / RFU TMEM200A (11744735_a_at) / Fold change /veh TMEM200A (11744735_a_at) / RFU CCDC152 (11751479_a_at) / Fold change /veh CCDC152 (11751479_a_at) / RFU FAM211A (11726209_a_at) / Fold change /veh FAM211A (11726209_a_at) / RFU RGS16 (11746705_a_at) / Fold change /veh RGS16 (11746705_a_at) / RFU VCAN (11755009_s_at) / Fold change /veh VCAN (11755009_s_at) / RFU RHOB (11743442_s_at) / Fold change /veh RHOB (11743442_s_at) / RFU RGS16 (11720943_a_at) / Fold change /veh RGS16 (11720943_a_at) / RFU RGS16 (11720944_at) / Fold change /veh RGS16 (11720944_at) / RFU, VPS4B / Fold change vs veh, VPS4B / RFU, CREB1 / Fold change vs veh, CREB1 / RFU, DNAJC13 / Fold change vs veh, DNAJC13 / RFU, GNAQ / Fold change vs veh, GNAQ / RFU, CDK5R1 / Fold change vs veh, CDK5R1 / RFU, ZRANB3 / Fold change vs veh, ZRANB3 / RFU, CUL4A / Fold change vs veh, CUL4A / RFU, CCNY / Fold change vs veh, CCNY / RFU, UFL1 / Fold change vs veh, UFL1 / RFU, COG3 / Fold change vs veh, COG3 / RFU, DIAPH2 / Fold change vs veh, DIAPH2 / RFU, SKA2 / Fold change vs veh, SKA2 / RFU, AFF3 / Fold change vs veh, AFF3 / RFU, LMF1 / Fold change vs veh, LMF1 / RFU, IPO11 / Fold change vs veh, IPO11 / RFU, DFFB / Fold change vs veh, DFFB / RFU, FOXP1 / Fold change vs veh, FOXP1 / RFU, CARD8 / Fold change vs veh, CARD8 / RFU, STRN3 / Fold change vs veh, STRN3 / RFU, ADK / Fold change vs veh, ADK / RFU, RASSF2 / Fold change vs veh, RASSF2 / RFU, WIPF1 / Fold change vs veh, WIPF1 / RFU, LARP1B / Fold change vs veh, LARP1B / RFU, RASA1 / Fold change vs veh, RASA1 / RFU, RB1 / Fold change vs veh, RB1 / RFU, PPFIA1 / Fold change vs veh, PPFIA1 / RFU, MAT2A / Fold change vs veh, MAT2A / RFU, CCT5 / Fold change vs veh, CCT5 / RFU, WDR92 / Fold change vs veh, WDR92 / RFU, CUX1 / Fold change vs veh, CUX1 / RFU, TTC7A / Fold change vs veh, TTC7A / RFU, TMEM135 / Fold change vs veh, TMEM135 / RFU, DEPTOR / Fold change vs veh, DEPTOR / RFU, CPM / Fold change vs veh, CPM / RFU, DNAJB6 / Fold change vs veh, DNAJB6 / RFU, CACNA2D3 / Fold change vs veh, CACNA2D3 / RFU, DTX4 / Fold change vs veh, DTX4 / RFU, TFCP2 / Fold change vs veh, TFCP2 / RFU, GMCL1 /// GMCL1P1 / Fold change vs veh, GMCL1 /// GMCL1P1 / RFU, AEBP2 / Fold change vs veh, AEBP2 / RFU, SNHG1 /// SNORD22 /// SNORD25 /// SNORD26 /// SNORD27 /// SNORD28 /// SNORD29 /// SNORD31 / Fold change vs veh, SNHG1 /// SNORD22 /// SNORD25 /// SNORD26 /// SNORD27 /// SNORD28 /// SNORD29 /// SNORD31 / Fold change (Aza/veh), C12orf56 (ProbeSet 11735607_a_at) / Fold change (ACY-1035/veh), C12orf56 (ProbeSet 11735607_a_at) / Fold change (Aza/veh), FGFR1OP (ProbeSet 11751329_s_at) / Fold change (ACY-1035/veh), FGFR1OP (ProbeSet 11751329_s_at) / Fold change (Aza/veh), VPS36 (ProbeSet 11739960_a_at) / Fold change (ACY-1035/veh), VPS36 (ProbeSet 11739960_a_at) / RFU SYPL1 (11715823_x_at) / Fold change /veh SYPL1 (11715823_x_at) / RFU IGFBP7 (11715501_s_at) / Fold change /veh IGFBP7 (11715501_s_at) / RFU REEP3 (11722064_at) / Fold change /veh REEP3 (11722064_at) / RFU IGLL1 (11728026_x_at) / Fold change /veh IGLL1 (11728026_x_at): dose or concentration left out as unconfirmed
# Conditions: MV-4-11 cells, 48 hours
compound,measurement,value
Nc1ncn([C@@H]2O[C@H](CO)[C@@H](O)[C@H]2O)c(=O)n1 [azacitidine],RFU C10orf10 (11716522_x_at),45.56 RFU
